Assay results taken from patent US20170275302A1, “INHIBITORS OF THE RENAL OUTER MEDULLARY POTASSIUM CHANNEL” (Merck Sharp & Dohme Corp., priority 2014, published 2017).

Target: T1, hROMK (hKir1.1) (Homo sapiens, UniProt P48048)
T1 construct: expressed in transfected cells
T1 sequence (P48048 1-391): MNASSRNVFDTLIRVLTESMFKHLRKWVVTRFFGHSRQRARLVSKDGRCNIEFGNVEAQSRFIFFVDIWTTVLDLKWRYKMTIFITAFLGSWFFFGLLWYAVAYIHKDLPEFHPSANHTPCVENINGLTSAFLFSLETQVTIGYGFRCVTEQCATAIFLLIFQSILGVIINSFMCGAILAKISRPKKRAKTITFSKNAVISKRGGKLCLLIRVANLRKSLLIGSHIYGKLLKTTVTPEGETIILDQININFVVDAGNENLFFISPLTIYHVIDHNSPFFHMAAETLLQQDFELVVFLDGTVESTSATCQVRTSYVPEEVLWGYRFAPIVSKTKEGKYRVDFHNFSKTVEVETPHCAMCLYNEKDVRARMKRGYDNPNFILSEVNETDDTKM
Assay: Thallium Flux Assay (ROMK channel functional thallium flux assay, FLIPR-Tetra)
Type: cell-based
Details: HEK293 cells stably expressing hROMK (hKir1.1); FluxOR thallium flux, 30 min compound incubation; concentration inhibiting 50% of ROMK thallium flux signal
Method: The following Thallium Flux Assay was performed on each of the final product compounds in the Examples.
HEK293 cells stably expressing hROMK (hKir1.1) were grown at 37° C. in a 10% CO2 humidified incubator in complete growth media: Dulbecco's Modified Eagle Medium supplemented with non-essential amino acids, Penicillin/Streptomycin/Glutamine, G418 and FBS. At >80% confluency, the media was aspirated from the flask and rinsed with 10 mL calcium/magnesium-free phosphate buffered saline (PBS). 5 mL of 1× trypsin (prepared in Ca/Mg Free PBS) was added to T-225 flask and the flask was returned to 37° C./CO2 incubator for 2-3 minutes. To dislodge the cells, the side of the flask was gently banged with one's hand. The cells were completely titrated and then the cells were transferred to 25 mL complete media, centrifuged at 1,500 rpm for 6 min followed by resuspension in complete growth media, and the cell concentration was determined. For typical re-seeding, 4E6 cells/T-225 flask will attain >80% confluency in 4 days. Under ideal growth conditions and appropriate tissue culture practices, this cell line is stable for 40-45 passages.
Compound Buffer (per microplate): 20 mL Probenecid/Assay Buffer; 0.3 mM ouabain (10 mM ouabain in water can be stored in amber bottle/aluminum foil at room temperature); Test compound
Stimulant Buffer (prepared at 5× final concentration in 1× FluxOR™Chloride-Free Buffer): 7.5 mM thallium sulfate and 0.75 mM potassium sulfate (to give a final assay concentration of 3 mM Thallium/0.3 mM potassium). Store at 4° C. when not in use. If kept sterile, this solution is good for months.
The ROMK channel functional thallium flux assay was performed in 384 wells, using the FLIPR-Tetra instrument. HEK-hKir1.1 cells were seeded in Poly-D-Lysine microplates and kept in a 37° C.-10% CO2 incubator overnight. On the day of the experiment, the growth media was replaced with the FluxOR™ reagent loading buffer and incubated, protected from light, at ambient temperature (23-25° C.) for 90 min. The loading buffer was replaced with assay buffer±test compound followed by 30 min incubation at ambient temperature, where the thallium/potassium stimulant was added to the microplate.
• 1. Seed HEK-hKir1.1 cells (50 μl at 20,000 cells/well) in 384-well PDL coated Microplates • 2. Allow cells to adhere overnight in humidified 37° C./10% CO2 incubator • 3. Completely remove cell growth media from microplate and replace with 25 μl loading buffer • 4. Incubate Microplate at room temperature, protected form light, for 90 min • 5. Remove loading buffer and replace with 25 μl 1× Assay Buffer±test compound. • 6. Incubate microplate at room temperature, protected from light, for 30 min • 7. At FLIPR-Tetra 384: Add stimulant (thallium/potassium) solution to microplate and monitor fluorescence. Excitation=400 nm, Emission=460 & 580 nm. Collect data for ˜10 min.
The fluorescence intensity of wells containing 3 μM of a standard control ROMK inhibitor of the present invention was used to define the ROMK-sensitive component of thallium flux. Fluorescence in the presence of test compounds was normalized to control values to provide % fluorescence change. IC50 values represent the concentration of compound that inhibited 50% of the ROMK thallium flux signal.

Row | SMILES | IC50 [nM]
1 | OC(CN1CCC2(CC1)CCN(c1ccc3nncn3n1)C2)c1ccc(-n2cnnn2)nc1 (racemic) [Example 52] | 84
2 | Cc1c(C(O)CN2CCC3(CC2)CCN(c2ccc4nncn4n2)C3)ccc(C#N)c1F (racemic) [Example 53] | 18.7
3 | Cc1c(F)c(C#N)cc(F)c1C(O)CN1CCC2(CC1)CCN(c1ccc3nncn3n1)C2 (racemic) [Example 54, 4-(2-(2-([1,2,4]triazolo[4,3-b]pyridazin-6-yl)-2,8-diazaspiro[4.5]decan-8-yl)-1-hydroxyethyl)-2,5-difluoro-3-methylbenzonitrile] | 35.9
4 | Cc1cc(C#N)c(F)cc1C(O)CN1CCC2(CC1)CCN(c1ccc3nncn3n1)C2 (racemic) [Example 55] | 26
5 | OC(CN1CCC2(CCN(c3ccc4nncn4n3)CC2)C1)c1ccc(-n2cnnn2)nc1 (racemic) [Example 69] | 72.6
6 | Cc1c([C@@H](O)CN2CCC3(CC2)CCN(c2nccn4nccc24)C3)ccc2c1COC2=O [Example 1, (R)-5-(1-hydroxy-2-(2-(pyrazolo[1,5-α]pyrazin-4-yl)-2,8-diazaspiro[4.5]decan-8-yl)ethyl)-4-methylisobenzofuran-1(3H)-one] | 745
7 | Cc1c([C@@H](O)CN2CCC3(CC2)CCN(c2nc4cc(C#N)ccc4[nH]2)C3)ccc2c1COC2=O [Example 2] | 132
8 | Cc1c([C@@H](O)CN2CCC3(CC2)CCN(c2nccn4cnnc24)C3)ccc2c1COC2=O [Example 3] | 235
9 | Cc1c([C@@H](O)CN2CCC3(CC2)CCN(c2nc4cc(F)ccc4o2)C3)ccc2c1COC2=O [Example 4] | 779
10 | Cc1c([C@@H](O)CN2CCC3(CC2)CCN(c2ccc4nncn4n2)C3)ccc2c1COC2=O [Example 5, (R)-5-(2-(2-([1,2,4]triazolo[4,3-b]pyridazin-6-yl)-2,8-diazaspiro[4.5]decan-8-yl)-1-hydroxyethyl)-4-methylisobenzofuran-1 (3H)-one] | 74.7
11 | Cc1c([C@@H](O)CN2CCC3(CC2)CCN(c2nc4c(S(N)(=O)=O)cccc4s2)C3)ccc2c1COC2=O [Example 6] | 304
12 | Cc1c([C@@H](O)CN2CCC3(CC2)CCN(C2=Nc4ccccc4C4=NCCN42)C3)ccc2c1COC2=O [Example 7] | 620
13 | Cc1c([C@@H](O)CN2CCC3(CC2)CCN(c2ccn4nccc4n2)C3)ccc2c1COC2=O [Example 8] | 246
14 | Cc1c([C@@H](O)CN2CCC3(CC2)CCN(c2nn4cnnc4c4ccccc24)C3)ccc2c1COC2=O [Example 9] | 261
15 | Cc1c([C@@H](O)CN2CCC3(CC2)CCN(c2ccc4nnnn4n2)C3)ccc2c1COC2=O [Example 10, (R)-5-(1-hydroxy-2-(2-(tetrazolo[1,5-b]pyridazin-6-yl)-2,8-diazaspiro[4.5]decan-8-yl)ethyl)-4-methylisobenzofuran-1(3H)-one] | 12.8
16 | CSCc1nnc2ccc(N3CCC4(CCN(C[C@H](O)c5ccc6c(c5C)COC6=O)CC4)C3)nn12 [Example 11] | 47.7
17 | Cc1c([C@@H](O)CN2CCC3(CC2)CCN(c2ccc4nnc(-c5ccco5)n4n2)C3)ccc2c1COC2=O [Example 13] | 411
18 | Cc1c([C@@H](O)CN2CCC3(CC2)CCN(c2ccc4nnc(C5CC5)n4n2)C3)ccc2c1COC2=O [Example 14] | 204
19 | Cc1c([C@@H](O)CN2CCC3(CC2)CCN(c2ccc4nnc(C(F)(F)F)n4n2)C3)ccc2c1COC2=O [Example 15] | 287

Row | SMILES | IC50 [nM]
20 | CCc1nnc2ccc(N3CCC4(CCN(C[C@H](O)c5ccc6c(c5C)COC6=O)CC4)C3)nn12 [Example 16] | 97.8
21 | Cc1c([C@@H](O)CN2CCC3(CC2)CCN(c2ncc4c(C)n[nH]c4n2)C3)ccc2c1COC2=O [Example 17] | 486
22 | Cc1c([C@@H](O)CN2CCC3(CCCN(c4nccn5cnnc45)C3)C2)ccc2c1COC2=O (some centres unmarked) [Example 18] | 339
23 | Cc1c([C@@H](O)CN2CCC3(CC2)CCN(c2ccc4nnc(C)n4n2)C3)ccc2c1COC2=O [Example 19] | 74.7
24 | COc1cc([C@@H](F)CN2CCC3(CC2)CCN(c2ccc4nncn4n2)C3)ncc1C#N [Example 21] | 236
25 | COc1cc([C@H](CN2CCC3(CC2)CCN(c2ccc4nncn4n2)C3)OC(=O)C2CC2)ncc1C#N [Example 22] | 212
26 | COc1cc([C@H](CN2CCC3(CC2)CCN(c2ccc4nncn4n2)C3)OC(C)=O)ncc1C#N [Example 23, (S)-2-(2-([1,2,4]triazolo[4,3-β]pyridazin-6-yl)-2,8-diazaspiro[4.5]decan-8-yl)-1-(5-cyano-4-methoxypyridin-2-yl)ethyl acetate] | 108
27 | Cc1c([C@@H](O)CN2CCC3(CC2)CCN(c2cnc4nncn4c2)C3)ccc2c1COC2=O [Example 24, (R)-5-(2-(2-([1,2,4]triazolo[4,3-a]pyrimidin-6-yl)-2,8-diazaspiro[4.5]decan-8-yl)-1-hydroxyethyl)-4-methylisobenzofuran-1(3H)-one] | 850
28 | Cc1c([C@@H](O)CN2CCC3(CC2)CCN(c2ccc4nsnc4c2)C3)ccc2c1COC2=O [Example 25, (R)-5-(2-(2-(benzo[c][1,2,5]thiadiazol-5-yl)-2,8-diazaspiro[4.5]decan-8-yl)-1-hydroxyethyl)-4-methylisobenzofuran-1 (3H)-one] | 342
29 | COC1OC(=O)c2ccc(N3CCC4(CCN(C[C@H](O)c5ccc6c(c5C)COC6=O)CC4)C3)cc21 (stereo partly drawn) [Example 26, 5-((1R)-1-hydroxy-2-(2-(3-methoxy-1-oxo-1,3-dihydroisobenzofuran-5-yl)-2,8-diazaspiro[4.5]decan-8-yl)ethyl)-4-methylisobenzofuran-1(3H)-one] | 199
30 | Cc1c([C@@H](O)CN2CCC3(CC2)CCN(c2snc4ncccc24)C3)ccc2c1COC2=O [Example 27, (R)-5-(1-hydroxy-2-(2-(isothiazolo[3,4-b]pyridin-3-yl)-2,8-diazaspiro[4.5]decan-8-yl)ethyl)-4-methylisobenzofuran-1(3H)-one] | 317
31 | Cc1c([C@@H](O)CN2CCC3(CC2)CCN(c2cc4cncnc4s2)C3)ccc2c1COC2=O [Example 28, (R)-5-(1-Hydroxy-2-(2-(thieno[2,3-d]pyrimidin-6-yl)-2,8-diazaspiro[4.5]decan-8-yl)ethyl)-4-methylisobenzofuran-1 (3H)-one] | 261
32 | Cc1c([C@@H](O)CN2CCC3(CC2)CCN(c2cnc4snnc4c2)C3)ccc2c1COC2=O [Example 29, (R)-5-(2-(2-([1,2,3]thiadiazolo[5,4-b]pyridin-6-yl)-2,8-diazaspiro[4.5]decan-8-yl)-1-hydroxyethyl)-4-methylisobenzofuran-1(3H)-one] | 301
33 | Cc1c([C@@H](O)CN2CCC3(CC2)CCN(c2cnc4snnc4c2)C3=O)ccc2c1COC2=O [Example 30] | 83.2
34 | Cc1c([C@@H](O)CN2CCC3(CC2)CCN(c2ccc4nsnc4c2)C3=O)ccc2c1COC2=O [Example 31] | 267
35 | Cc1c([C@@H](O)CN2CCC3(CC2)CCN(c2cc4ccncc4s2)C3=O)ccc2c1COC2=O [Example 32] | 48.8
36 | COc1cc2ccc(N3CCC4(CCN(C[C@H](O)c5ccc6c(c5C)COC6=O)CC4)C3=O)nc2cn1 [Example 33] | 284
37 | Cc1c([C@@H](O)CN2CCC3(CC2)CCN(c2ccc4sccc4n2)C3=O)ccc2c1COC2=O [Example 34] | 427
38 | Cc1c([C@@H](O)CN2CCC3(CC2)CCN(c2ccc4ncnn4c2)C3=O)ccc2c1COC2=O [Example 35] | 537
